{
  "source": "patent US9284272B2",
  "about": "“Inhibitors of histone methyltransferase G9a” (AbbVie Inc., priority 2014, dated 2016)",
  "key": {"[1]": {"experiment": "Cytotoxicity, CellTiter Glo", "assay_type": "cell-based", "settings": "human, MHH-65-1 cells, 7-day proliferation, neural crest derived lines"}, "[2]": {"experiment": "Cytotoxicity, CellTiter Glo", "assay_type": "cell-based", "settings": "human, IMR-32 cells, 12-day proliferation, neural crest derived lines"}, "[3]": {"experiment": "Cytotoxicity, CellTiter Glo", "assay_type": "cell-based", "settings": "human, THP-1 cells, 5-day proliferation"}, "[4]": {"experiment": "Cytotoxicity, CellTiter Glo", "assay_type": "cell-based", "settings": "human, G-401 cells, 7-day proliferation, neural crest derived lines"}, "[5]": {"experiment": "Cytotoxicity, CellTiter Glo", "assay_type": "cell-based", "settings": "human, PA-1 cells, 7-day proliferation, neural crest derived lines"}, "[6]": {"experiment": "Cytotoxicity, CellTiter Glo", "assay_type": "cell-based", "settings": "human, HL-60 cells, 5-day proliferation"}, "[7]": {"experiment": "Cytotoxicity, CellTiter Glo", "assay_type": "cell-based", "settings": "human, US2OS cells, 7-day proliferation, neural crest derived lines"}, "[8]": {"experiment": "Cytotoxicity, CellTiter Glo", "assay_type": "cell-based", "settings": "human, 22RV1 cells, 5-day proliferation"}, "H3K9me2": {"system": "H3K9me2", "experiment": "Cellular immunostaining (In-Cell Western), H3K9Me2 antibody immunofluorescence in PC3 cells", "assay_type": "cell-based, human", "settings": "for H3K9me2 % inhibition, single well of triplicate / inhibition at 0.03 µM / inhibition at 0.1 µM / inhibition at 0.3 µM / inhibition at 1 µM / inhibition at 3 µM: 72 hours; for inhibition at 0.03 µM / inhibition at 0.1 µM / inhibition at 0.3 µM / inhibition at 1 µM / inhibition at 3 µM: Homo sapiens, PC-3, 72 h", "method": "For comparison, the known G9a inhibitor UNC0638 (see structure in FIG. 1) was evaluated in this study concurrently.\nHuman PC3 cells (ATCC, Manassas, Va.) were grown in RPMI+10% Fetal Bovine Serum and plated at 5,000 cells per well in a 96-well plate. The following day compounds and DMSO controls were added in triplicate at the indicated concentrations. Cells were fixed following incubation at 37° C. for 72 hours with 10% formaldehyde and then permeabilized with 0.1% Triton X-100. Cells were then washed with PBS and blocked with 0.1% BSA/PBS solution. Mouse anti-H3K9me2 (1:200, AbCam #1220, Cambridge, Mass.) and rabbit anti-Histone H3 (1:500, Cell Signaling Technology #4499, Danvers, Mass.) primary antibodies in 0.3% BSA were then added together to each well and incubated overnight at 4° C. The following day cells were washed in PBS-T (PBS with 0.1% Tween) followed by addition of anti-mouse (IR800) and anti-rabbit (IR700) secondary antibodies (LI-COR Biosciences, Lincoln, Nebr.) and incubated for one hour at room temperature. Cells were then washed with PBS-T followed by PBS and liquid was removed from all wells. The plate was scanned using both the 700 nm (anti-rabbit detection) and 800 nm (anti-mouse detection) channels on the Odyssey Imaging System (LI-COR Biosciences, Lincoln, Nebr.). Data was quantified using the LI-COR imaging suite and graphed as % inhibition H3K9me2/total H3/well compared to DMSO control wells. Wells treated in triplicate were averaged for each indicated concentration and error bars represent the standard deviation (n=3)."}, "[9]": {"experiment": "Cytotoxicity, CellTiter Glo", "assay_type": "cell-based", "settings": "A-201 cells, 12-day proliferation, neural crest derived lines"}, "[10]": {"experiment": "Cytotoxicity, CellTiter Glo", "assay_type": "cell-based", "settings": "human, KMS12 cells, 5-day proliferation"}, "[11]": {"experiment": "Cytotoxicity, CellTiter Glo", "assay_type": "cell-based", "settings": "human, CAPO-ES1 cells, 7-day proliferation, neural crest derived lines"}, "[12]": {"experiment": "Cytotoxicity, CellTiter Glo", "assay_type": "cell-based", "settings": "human, KMS11 cells, 5-day proliferation"}, "[13]": {"experiment": "Cytotoxicity, CellTiter Glo", "assay_type": "cell-based", "settings": "human, DU145 cells, 5-day proliferation"}, "[14]": {"experiment": "Cytotoxicity, CellTiter Glo", "assay_type": "cell-based", "settings": "human, MV4;11 cells, 5-day proliferation"}, "[15]": {"experiment": "Cytotoxicity, CellTiter Glo", "assay_type": "cell-based", "settings": "human, LN229 cells, 5-day proliferation"}, "[16]": {"experiment": "Cytotoxicity, CellTiter Glo", "assay_type": "cell-based", "settings": "human, TC-71 cells, 7-day proliferation, neural crest derived lines"}, "[17]": {"experiment": "Cytotoxicity, CellTiter Glo", "assay_type": "cell-based", "settings": "human, LNCap cells, 5-day proliferation"}, "[18]": {"experiment": "Cytotoxicity, CellTiter Glo", "assay_type": "cell-based", "settings": "human, H929 cells, 5-day proliferation"}, "[19]": {"experiment": "Cytotoxicity, CellTiter Glo", "assay_type": "cell-based", "settings": "human, Kasume-1 cells, 5-day proliferation"}, "[20]": {"experiment": "Cytotoxicity, CellTiter Glo", "assay_type": "cell-based", "settings": "human, K562 cells, 5-day proliferation"}, "[21]": {"system": "human peripheral blood mononucleated cells (PBMCs)", "experiment": "Viability of PBMCs (Caspase-Glo 3/7, CellTiter Glo)", "assay_type": "cell-based", "settings": "0-10 uM, 48 h", "method": "Following treatment, Caspase 3/7 activity (i.e., a marker of apoptosis) was assessed by the Caspase-Glo 3/7 assay system (FIG. 7A), and cell viability was assessed by CellTiter Glo assay (FIG. 7B)."}, "[22]": {"experiment": "Cytotoxicity, CellTiter Glo", "assay_type": "cell-based", "settings": "human, OPM2 cells, 5-day proliferation"}, "[23]": {"experiment": "Cytotoxicity, CellTiter Glo", "assay_type": "cell-based", "settings": "human, DaoY cells, 7-day proliferation, neural crest derived lines"}, "[24]": {"experiment": "Cytotoxicity, CellTiter Glo", "assay_type": "cell-based", "settings": "human, ZR7350 cells, 7-day proliferation, neural crest derived lines"}, "[25]": {"experiment": "Cytotoxicity, CellTiter Glo", "assay_type": "cell-based", "settings": "human, Calu6 cells, 5-day proliferation"}, "[26]": {"experiment": "Cytotoxicity, CellTiter Glo", "assay_type": "cell-based", "settings": "human, L-363 cells, 5-day proliferation"}, "[27]": {"experiment": "Cytotoxicity, CellTiter Glo", "assay_type": "cell-based", "settings": "human, RS4;11 cells, 5-day proliferation"}, "[28]": {"experiment": "Cytotoxicity, CellTiter Glo", "assay_type": "cell-based", "settings": "human, RPMI8226 cells, 5-day proliferation"}, "[29]": {"experiment": "Cytotoxicity, CellTiter Glo", "assay_type": "cell-based", "settings": "human, SK-N-MC cells, 7-day proliferation, neural crest derived lines"}, "[30]": {"experiment": "Cytotoxicity, CellTiter Glo", "assay_type": "cell-based", "settings": "human, SKBR3 cells, 5-day proliferation"}, "in vitro": {"experiment": "in vitro", "assay_type": "cell-based", "settings": "PH-1; 7-day proliferation, neural crest derived lines; read-out: IC50 cytotoxicity"}},
  "note": "Where “and” joins values, the source holds several entries; their conditions need not be identical. Equal entries are not always repeated. Where two headings read alike, the source gives them in different places.",
  "data": [
    {"smiles": "COc1cc2c(NC3CCN(C(C)C)CC3)nc(C3CCCCC3)nc2cc1OCCCN1CCCC1", "note": "[UNC0638, reference compound]", "values": [
      {"measurement": "IC50 at 7 day", "setting": "[1]", "value": 1900, "unit": "nM"},
      {"measurement": "IC50 at 12 day", "setting": "[2]", "value": 100, "unit": "nM"},
      {"measurement": "IC50 at 5 day", "setting": "[3]", "value": 4900, "unit": "nM"},
      {"measurement": "IC50 at 7 day", "setting": "[4]", "value": 400, "unit": "nM"},
      {"measurement": "IC50 at 7 day", "setting": "[5]", "value": 200, "unit": "nM"},
      {"measurement": "IC50 at 5 day", "setting": "[6]", "value": 6500, "unit": "nM"},
      {"measurement": "IC50 at 7 day", "setting": "[7]", "value": 500, "unit": "nM"},
      {"measurement": "IC50 at 5 day", "setting": "[8]", "value": 200, "unit": "nM"},
      {"measurement": "reduction of cellular levels of H3K9Me2", "setting": "H3K9me2; 3 μM", "value": "~50", "unit": "%"},
      {"measurement": "H3K9me2 % inhibition, single well of triplicate", "setting": "H3K9me2; 0.03 uM", "value": "17.8107% and 15.8006%"},
      {"measurement": "H3K9me2 % inhibition, single well of triplicate", "setting": "H3K9me2; 0.1 uM", "value": "27.68% and 25.03%"},
      {"measurement": "H3K9me2 % inhibition, single well of triplicate", "setting": "H3K9me2; 0.3 uM", "value": "41.05% and 40.37%"},
      {"measurement": "H3K9me2 % inhibition, single well of triplicate", "setting": "H3K9me2; 1 uM", "value": "43.21% and 47.35%"},
      {"measurement": "H3K9me2 % inhibition, single well of triplicate", "setting": "H3K9me2; 3 uM", "value": "48.22% and 49.38%"},
      {"measurement": "inhibition at 0.03 µM", "setting": "H3K9me2; 0.03 uM, n=3, read-out: H3K9me2 % inhibition, average", "value": 14.6, "unit": "%"},
      {"measurement": "inhibition at 0.03 µM", "setting": "H3K9me2; 0.03 uM, read-out: H3K9me2 % inhibition, single well of triplicate", "value": 10, "unit": "%"},
      {"measurement": "inhibition at 0.1 µM", "setting": "H3K9me2; 0.1 uM, n=3, read-out: H3K9me2 % inhibition, average", "value": 25.8, "unit": "%"},
      {"measurement": "inhibition at 0.1 µM", "setting": "H3K9me2; 0.1 uM, read-out: H3K9me2 % inhibition, single well of triplicate", "value": 24.6, "unit": "%"},
      {"measurement": "inhibition at 0.3 µM", "setting": "H3K9me2; 0.3 uM, n=3, read-out: H3K9me2 % inhibition, average", "value": 40.8, "unit": "%"},
      {"measurement": "inhibition at 0.3 µM", "setting": "H3K9me2; 0.3 uM, read-out: H3K9me2 % inhibition, single well of triplicate", "value": 41.1, "unit": "%"},
      {"measurement": "inhibition at 1 µM", "setting": "H3K9me2; 1 uM, n=3, read-out: H3K9me2 % inhibition, average", "value": 45.2, "unit": "%"},
      {"measurement": "inhibition at 1 µM", "setting": "H3K9me2; 1 uM, read-out: H3K9me2 % inhibition, single well of triplicate", "value": 44.9, "unit": "%"},
      {"measurement": "inhibition at 3 µM", "setting": "H3K9me2; 3 uM, n=3, read-out: H3K9me2 % inhibition, average", "value": 48.5, "unit": "%"},
      {"measurement": "inhibition at 3 µM", "setting": "H3K9me2; 3 uM, read-out: H3K9me2 % inhibition, single well of triplicate", "value": 47.8, "unit": "%"},
      {"measurement": "cell viability as measured by total histone H3", "setting": "H3K9me2; versus no treatment", "value": "No difference in cell viability"},
      {"measurement": "IC50 at 12 day", "setting": "[9]", "value": 600, "unit": "nM"},
      {"measurement": "IC50 at 5 day", "setting": "[10]", "value": 4400, "unit": "nM"},
      {"measurement": "IC50 at 7 day", "setting": "[11]", "value": 1200, "unit": "nM"},
      {"measurement": "IC50 at 5 day", "setting": "[12]", "value": 4000, "unit": "nM"},
      {"measurement": "IC50 at 5 day", "setting": "[13]", "value": 700, "unit": "nM"},
      {"measurement": "IC50 at 5 day", "setting": "[14]", "value": 1700, "unit": "nM"},
      {"measurement": "IC50 at 5 day", "setting": "[15]", "value": 500, "unit": "nM"},
      {"measurement": "IC50 at 7 day", "setting": "[16]", "value": 600, "unit": "nM"},
      {"measurement": "IC50 at 5 day", "setting": "[17]", "value": 300, "unit": "nM"},
      {"measurement": "IC50 at 5 day", "setting": "[18]", "value": 4600, "unit": "nM"},
      {"measurement": "IC50 at 5 day", "setting": "[19]", "value": 1100, "unit": "nM"},
      {"measurement": "IC50 at 5 day", "setting": "[20]", "value": 5300, "unit": "nM"},
      {"measurement": "effect on PBMC viability (Caspase 3/7 activity and CellTiter Glo)", "setting": "[21]", "value": "did at higher concentrations"},
      {"measurement": "IC50 at 5 day", "setting": "[22]", "value": 5600, "unit": "nM"},
      {"measurement": "IC50 at 7 day", "setting": "[23]", "value": 100, "unit": "nM"},
      {"measurement": "IC50 at 7 day", "setting": "[24]", "value": 1200, "unit": "nM"},
      {"measurement": "IC50 at 5 day", "setting": "[25]", "value": 500, "unit": "nM"},
      {"measurement": "IC50 at 5 day", "setting": "[26]", "value": 3900, "unit": "nM"},
      {"measurement": "IC50 at 5 day", "setting": "[27]", "value": 3100, "unit": "nM"},
      {"measurement": "IC50 at 5 day", "setting": "[28]", "value": 5100, "unit": "nM"},
      {"measurement": "IC50 at 7 day", "setting": "[29]", "value": 200, "unit": "nM"},
      {"measurement": "IC50 at 5 day", "setting": "[30]", "value": 600, "unit": "nM"},
      {"measurement": "IC50 at 7 day", "setting": "in vitro", "value": 4400, "unit": "nM"}
    ]}
  ]
}
